Laboratory results taken from PubChem BioAssay (NCI).
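Cultured in 96-well plates, cells were exposed to test compound for 48 hours across five concentrations. TGI: total growth inhibition.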

Columns and labels:
Assay in all cases: NCI anticancer screen, dose series, 48 h
[1] = tested on: SR leukemia
[2] = tested on: MOLT-4 leukemia
[3] = tested on: T-47D breast
[4] = tested on: PC-3 prostate

| SMILES | TGI [1] [µM] | TGI [2] [µM] | TGI [3] [µM] | TGI [4] [µM] |
| --- | --- | --- | --- | --- |
| N=C(N)C1CN(CC=O)C(=O)NC1=O (centres undefined) | > 100 | > 100 | > 100 | > 100 |
| Cc1ccnc2nc3[nH]c4ccccc4c3cc12 | > 100 | > 100 | > 100 | > 100 |
| C/C(=C\COP(=O)(O)OP(=O)(O)O)CC/C=C(\C)CNc1ccc([N+](=O)[O-])cc1 | > 100 | > 100 | > 100 | > 100 |
| O=c1[nH]c2ccsc2c(=O)n1COCc1ccccc1 | > 100 | > 100 |  | > 100 |
| O=S1(=O)OCCCOS(=O)(=O)C1Br | > 100 | > 100 | > 100 | > 100 |
| COc1ccc(C(CC(=O)c2ccccc2)C(=O)c2ccc3c(c2)OCO3)cc1 (centres undefined) | > 100 | > 100 | > 100 | > 100 |
| COc1ccc(-n2cnc3c(NC(C)(C)C(=O)O)ncnc32)cc1 | > 100 | > 100 | > 100 | > 100 |
| CCn1c(SCC(=O)NNC(=S)Nc2ccc(F)cc2)nc2ccccc2c1=O | > 100 | > 100 | > 100 | > 100 |
| Nc1c(Cl)c([N+](=O)[O-])cc2c1OCCCCO2 | > 100 | > 100 | > 100 | > 100 |
| O=C(O)CCSc1nnc(COc2ccc(Cl)cc2)n1-c1ccccc1 |  | > 100 | > 100 | > 100 |
| CC(Oc1ccc(Cl)cc1Cl)C(=O)NN1C(=O)CSC1c1ccc(Cl)cc1 (centres undefined) | 41.3 | 80.1 | > 100 | > 100 |
| CCn1c(=O)c2c3ccc(O)cc3oc2c2ccc(O)cc21 | > 100 | > 100 | 69.1 | > 100 |
| COc1ccc(CCN(C)C(=O)CC(C#N)(c2ccccc2)c2ccc(OC)c(OC)c2)cc1OC (centres undefined) | 99.3 | > 100 | > 100 | > 100 |
| N#CC(C#N)=C1CCCCc2ccc([N+](=O)[O-])cc21 |  | > 100 | > 100 | > 100 |
| C=CC(c1ccccc1)C1(O)c2cccc(O)c2C(=O)c2c(O)cccc21 (centres undefined) | 24.2 | 46.8 | 42.3 | 28.1 |
| Cc1ccc(S(=O)(=O)n2cnc(CC(NC(=O)C3CCC(=O)N3C(=O)OCc3ccccc3)C(=O)N3CCCC3C(=O)NN)c2)cc1 (centres undefined) | > 100 | > 100 |  | > 100 |
| Cc1cc(NCC2CC/C(=C\C=C\c3ccccc3)C2=O)no1 (centres undefined) | > 100 | > 100 | > 100 | > 100 |

| SMILES | TGI [1] [µM] | TGI [2] [µM] | TGI [3] [µM] | TGI [4] [µM] |
| --- | --- | --- | --- | --- |
| CN1CCC/C1=C1\C(=O)c2cccn2C1=O | > 100 | > 100 | > 100 | > 100 |
| CCCCc1ccc(N2C(=O)c3cccnc3S2(=O)=O)cc1 | > 100 | > 100 | > 100 | > 100 |
| COC(=O)c1cc(C#N)[nH]c1-c1cccs1 | > 100 | > 100 | > 100 | > 100 |
| COc1ccccc1N1C(=O)/C(=C\c2cc(OC)c(OC)c(OC)c2)S(=O)(=O)C1c1ccccc1 (centres undefined) | > 100 | > 100 | > 100 |  |
| COc1ccc(-c2cc(-c3ccco3)c(C#N)c(=S)n2C2OC(CO)C(O)C(O)C2O)cc1 (centres undefined) |  | > 100 |  | > 100 |
| O=c1[nH]n(Cc2ccccc2CCl)c2ccc([N+](=O)[O-])cc12 | > 100 | 90.8 |  | > 100 |
| COC(=O)/C=C(\S/C(=C(/c1ccc(OC)cc1)n1cc(C(=O)OC)c(C(=O)OC)n1)c1ccc(OC)cc1)C(=O)OC |  | > 100 | 10.2 | > 100 |
| O=C(NN1C(=O)c2ccccc2C1=O)c1ccccc1Nc1ccccc1C(=O)NN1C(=O)c2ccccc2C1=O | > 100 | > 100 |  | > 100 |
| C/C1=C\CC[C@@]2(C)O[C@@H]2[C@H]2OC(=O)C(C)C2C[C@H]1O (some centres undefined) | > 100 | > 100 |  | > 100 |
| CC1(C)N=C(N)N=C(N)N1c1cccc(OCc2cccc([N+](=O)[O-])c2)c1 |  | > 100 | > 89.1 | > 82.7 |
| Cc1ccccc1NC(=O)/C(C#N)=N\Nc1nc[nH]c1C(N)=O |  | > 100 | > 100 | > 100 |
| C/C(=N/NC(=S)N1CCCC1)c1cccc(/C(C)=N\NC(=S)N2CCCC2)n1 | 7.58 | 2.18 |  | 5.36 |
| COC(=O)c1nc2c3c(cccc3c1C(=O)OC)Nc1ccccc1-2 | > 100 | > 100 |  | 82.1 |
| C=C1CC(COc2ccc3ccc(=O)oc3c2)(c2ccccc2)OC1=O (centres undefined) | > 31 | 4.16 |  | 7.58 |
| CN(C)CCN1C(=O)c2ccccc2C1(O)c1ccc(Cl)cc1 (centres undefined) |  | > 100 | > 100 | > 100 |
| O=C(/C=C\c1ccccc1-c1ccccc1)c1ccccc1 | > 100 | > 100 | 96 |  |
